Data reported in patent publication US20060002911A1, “Association between a ppar ligand and an antioxidant agent and use thereof for treating obesity” (priority 2002, published 2006).

Conditions: ob/ob mice, intraperitoneal route once a day for 14 days
Experimental: Male C57 Black 6 ob/ob mice from 8 to 12 weeks old were used. […] After being weighed, the mice were treated with rosiglitazone (antidiabetic agent) on its own or in association with coenzyme Q10. […] In addition, the solution was pre-heated before injection. The mice were weighed every day and the weight obtained after 14 days of treatment was recorded.

CN(CCOc1ccc(CC2SC(=O)NC2=O)cc1)c1ccccn1 (centres unmarked) [rosiglitazone]
increase in the weight of the mice: greater than or equal to 5 grams
increase in weight relative to initial weight (more than initial weight): about 10%
